Where no end group is shown, it is not given here.
Experiments:
[1] = tested on: gastric cancer cells SGC-7901; test: Flow cytometry cell cycle analysis of SGC-7901 cells; type: cell-based; settings: P48 with bFGF, 24 h
[2] = tested on: gastric cancer cells SGC-7901; test: SGC-7901 transplanted tumor model in BALB/c nude mice; type: in vivo; settings: intraperitoneal, 32 and 64 mg/kg·d
Experimental: SGC-7901 cells were injected subcutaneously into the back of BALB/c nude mice. After 10 days, the mice were randomly divided into 4 groups, each with 12 mice, and were administered intraperitoneally. An administration group included a model group (normal saline group), an AZD4547 group (20 mg/kg·d), and a P48 group (32 mg/kg·d, 64 mg/kg·d). The length and width of the tumor were measured using a vernier caliper. The tumor volume was calculated using a formula V=0.52×L×W^2. The weights of the mice were recorded every 3 days, and the tumor size was recorded […]. After 28 days, the nude mice were sacrificed for dissection, and tissue samples were taken out for further study. The results are shown in FIG. 6, wherein A represents the weight change of the mice, B represents the volume and size of the tumor, C represents the expression of phosphorylated FLG, FRS2α and ERK1/2 in vivo after P48 treatment, and D represents the expression of Ki67 in vivo after P48 treatment.

[3] = tested on: gastric cancer cells SGC-7901; test: Transwell migration of SGC-7901 cells; type: cell-based; settings: 24 h
Experimental: In vitro anti-tumor activity of a short peptide compound P48 Hela229 (1500 cells/100 μl), B16-F10 (1000 cells/100 μl), NCI-H460 (4000 cells/100 μl) and SGC7901 (4000 cells/100 μl) cells were inoculated in 96-well plates. After incubated overnight adherently, the original medium was replaced with a Dulbecco's modified eagle medium (DMEM) containing 0.1% fetal bovine serum (FBS) or a Roswell Park Memorial Institute 1640 (RPMI-1640) medium containing 0.1% FBS, and culture was continued for 24 h. A mixture of P48 and bFGF, or bFGF alone were added into corresponding wells, and incubated for 48 h; an MTT solution (5 mg/mL) prepared by PBS was added to the cells in each well at 37° C., and treated for 4 h. The MTT was removed by aspiration, 150 μL of DMSO was added to each well, shaking was conducted for 10 min, and an optical density (OD) value was quantified with a microplate reader (SpectraMax M2/M2e, Molecular Devices, Sunnyvale, USA) at a wavelength of 490 nm. The percentage of drug growth inhibition rate was calculated by comparing with the bFGF group. […] The experimental procedure was as follows: 10% FBS-containing medium (500 μl) was added to a lower surface of a transwell insertion chamber, the cells together with the drug were inoculated into an upper chamber, and cultured with a serum-free medium (200 μl). […]

PLCy = test: Western blot of FGFR1 downstream protein PLCy in MEF-WT cells; type: cell-based; settings: bFGF stimulation 15 min
Experimental: Human embryonic kidney cells HEK-293, fibroblasts MEF-WT and Balb/c 3T3 were inoculated into 6-well plates, respectively. After growing adherently overnight, the cells were pretreated with P48 for 10 min or with AZD4547/PD173074/SSR for 2 h, and incubated with bFGF for 15 min. […] The experimental procedure was as follows: MEF-WT and MEFKO (FGFR1-FGFR2-FRS2a) cells (1×10^6 cells/ml) were inoculated in a 35 mm petri dish. After being adhered to the wall of petri dish overnight, the cells were washed with PBS; FITC-conjugated P48 (1, 10, 100 and 1000 nM) was added, and the cells were incubated in an incubator for 30 min. The cells were immobilized with 1% paraformaldehyde in the dark and washed with PBS. An expression level of the FITC was measured at a fluorescence channel 1 (FL-1) (530 nm), with an excitation wavelength of 488 nm. Data analysis was conducted using CellQuest software (Becton Dickinson).

Substance: SPPRYPGGGS-NH2 [P48, Ser-Pro-Pro-Arg-Tyr-Pro-Gly-Gly-Gly-Ser-NH2]
- cell cycle arrest [1]: can block gastric cancer cells SGC-7901 in G0/G1 phase in a concentration-dependent manner
- inhibition of FGFR1 signaling pathways in tumors (phosphorylated FLG, FRS2a, ERK1/2) ([2]; 28 days): desirable inhibitory effect
- inhibition of tumor growth ([2]; 28 days): can significantly inhibit the growth of gastric cancer cells SGC-7901
- inhibition of Ki67 expression (immunohistochemistry) ([2]; compared with control group): can inhibit the expression of Ki67 in a concentration-dependent manner
- inhibition of cell migration [3]: can inhibit cell migration in a concentration-dependent manner
- inhibitory effect on downstream PLCy (PLCy): no significant inhibitory effect
